Results on one compound are retold here after ChEMBL document CHEMBL4602653, “Neuraminidase-triggered activation of prodrug-type substrate of 4-nitroaniline” (Bioorg Med Chem Lett, 2020).

Holding throughout (type): ADME
Holding throughout (settings): isolated protein, 6000 µM

Data set [1] can be described thus: Drug metabolism assessed as Clostridium perfringens neuraminidase-mediated drug decomposition resulting in formation of alpha-H3-(equitorial)-N-acetyl-neuraminic acid at 2.74 ppm at 6 mM measured over 10 hrs by 1H-NMR analysis.
Data set [2] in a line: Drug metabolism assessed as Clostridium perfringens neuraminidase-mediated drug decomposition resulting in formation of alpha-H3-(axial)-N-acetyl-neuraminic acid at 1.62 ppm at 6 mM measured over 10 hrs by 1H-NMR analysis.
Data set [3] can be described thus: Drug metabolism assessed as Clostridium perfringens neuraminidase-mediated drug decomposition resulting in formation of beta-H3-(equitorial)-N-acetyl-neuraminic acid at 2.21 ppm at 6 mM measured over 10 hrs by 1H-NMR analysis.
Data set [4] is described as follows: Drug metabolism assessed as Clostridium perfringens neuraminidase-mediated drug decomposition resulting in formation of alpha-H3-(axial)-N-acetyl-neuraminic acid at 1.83 ppm at 6 mM measured over 10 hrs by 1H-NMR analysis.
Data set [5] can be described thus: Drug metabolism assessed as Clostridium perfringens neuraminidase-mediated drug decomposition by measuring ratio of alpha-H3-(equitorial)-N-acetyl-neuraminic acid to beta-H3-(equitorial)-N-acetyl-neuraminic acid at 6 mM measured over 10 hrs by 1H-NMR analysis.
Data set [6] is described as follows: Drug metabolism assessed as Clostridium perfringens neuraminidase-mediated drug decomposition by measuring ratio of alpha-H3-(axial)-N-acetyl-neuraminic acid to beta-H3-(axial)-N-acetyl-neuraminic acid at 6 mM measured over 10 hrs by 1H-NMR analysis.
A short description of data set [7]: Drug metabolism assessed as Clostridium perfringens neuraminidase-mediated formation of para-quinone methide by measuring 4-hydroxy benzyl alcohol formation at 6.90 to 7.29 ppm at 6 mM measured after 10 hrs by 1H-NMR analysis.
Data set [8] in a line: Drug metabolism assessed as Clostridium perfringens neuraminidase-mediated formation of free N-acetyl-neuraminic acid at 6 mM measured after 75 hrs by 1H-NMR analysis.

Each structure is given as a SMILES string.

Consider `CC(=O)N[C@H]1[C@H]([C@H](O)[C@H](O)CO)OC(Oc2ccc(COC(=O)Nc3ccc([N+](=O)[O-])cc3)cc2)(C(=O)O)C[C@@H]1O` (stereo partly drawn), for which the Drug metabolism result in data set [1], in data set [2], in data set [3], in data set [4], in data set [7] and in data set [8] was “Metabolite_Detected” each time. Also, the values for the Ratio in data set [5] and in data set [6] were 7.6 and 92.4, respectively.
